According to ChEMBL document CHEMBL1139287, “Spiro(imidazo[1,2-a]pyrano[2,3-c]pyridine-9-indenes) as inhibitors of gastric acid secretion” (Bioorg Med Chem, 2009):

Tests used:
[1] = physchem
Description: Dissociation constant, pKa of the compound

[2] = physchem; settings: octanol/water, pH 7.4
Description: Octanol-water distribution coefficient, log D at pH 7.4 at 25 degC by potentiometric titration method

[3] = Octanol-water distribution coefficient, log D by HPLC; type: physicochemical

SMILES	pKa [1]	logD [2]	logD [3]
CNC(=O)c1cn2c(C)c(C)nc2c2c1CCC1(CCc3ccccc31)O2 (stereo not given)	6.8	3.29	
Cc1nc2c3c(c(C(=O)NC4CC4)cn2c1C)CCC1(CCc2ccccc21)O3 (stereo not given)	6.76	3.64	
Cc1nc2c3c(c(C(=O)N4CCCC4)cn2c1C)CCC1(CCc2ccccc21)O3 (stereo not given)	6.88	3.36	
Cc1nc2c3c(c(C(=O)N4CCCCC4)cn2c1C)CCC1(CCc2ccccc21)O3 (stereo not given)	6.81	3.87	
Cc1nc2c3c(c(C(=O)N(C)C)cn2c1C)CCC1(CCc2cc(F)ccc21)O3 (stereo not given)			3
Cc1nc2c3c(c(C(=O)N(C)C)cn2c1C)CCC1(Cc2ccccc2C1)O3	6.84		2.9
Cc1nc2c3c(c(C(=O)N4CC(F)(F)C4)cn2c1C)CCC1(CCc2ccccc21)O3 (stereo not given)	6.55	3.57	
CON(C)C(=O)c1cn2c(C)c(C)nc2c2c1CCC1(CCc3ccccc31)O2 (stereo not given)	6.63	3.15	

Continued, values first:

pKa [1]	logD [2]	logD [3]	SMILES
6.81	3.19		Cc1nc2c3c(c(C(=O)N4CCC4)cn2c1C)CCC1(CCc2ccccc21)O3 (stereo not given)
6.87	3.42		Cc1cccc2c1CCC21CCc2c(C(=O)N(C)C)cn3c(C)c(C)nc3c2O1 (stereo not given)
6.74	2.85		Cc1nc2c3c(c(C(=O)N4CCOCC4)cn2c1C)CCC1(CCc2ccccc21)O3 (stereo not given)
6.76	4.7		Cc1nc2c3c(c(C(=O)Nc4ccccc4)cn2c1C)CCC1(CCc2ccccc21)O3 (stereo not given)
6.84	2.91		Cc1nc2c3c(c(C(=O)N(C)C)cn2c1C)CCC1(CCc2ccccc21)O3 (racemic)
